# System: MV-4-11 cells
# Test: Gene expression microarray analysis (Affymetrix PrimeView) and GSEA
# Type: cell-based, human
# Parameters: RFU PODN (11730768_x_at) / Fold change /veh PODN (11730768_x_at) / RFU LINC00158 (11744669_a_at) / Fold change /veh LINC00158 (11744669_a_at) / RFU DUSP10 (11751237_a_at) / Fold change /veh DUSP10 (11751237_a_at) / RFU ID3 (11757404_x_at) / Fold change /veh ID3 (11757404_x_at) / RFU PLEKHG5 (11737974_s_at) / Fold change /veh PLEKHG5 (11737974_s_at) / RFU LRRC4B (11730491_at) / Fold change /veh LRRC4B (11730491_at) / RFU GIMAP4 (11747438_a_at) / Fold change /veh GIMAP4 (11747438_a_at) / RFU KRT8 (11758183_x_at) / Fold change /veh KRT8 (11758183_x_at) / RFU CNN1 (11734310_a_at) / Fold change /veh CNN1 (11734310_a_at) / RFU VPS37D (11726825_at) / Fold change /veh VPS37D (11726825_at) / RFU C10orf10 (11716522_x_at) / Fold change /veh C10orf10 (11716522_x_at) / RFU KIR2DL2 /// KIR2DL4 /// KIR2DL5A /// KIR2DL5B /// KIR2DS1 /// KIR2DS2 /// KIR2DS3 /// KIR2DS4 /// KIR3DL3 /// KIR3DL3 /// KIR3DS1 (11738374_at) / Fold change /veh KIR2DL2 /// KIR2DL4 /// KIR2DL5A /// KIR2DL5B /// KIR2DS1 /// KIR2DS2 /// KIR2DS3 /// KIR2DS4 /// KIR3DL3 /// KIR3DL3 /// KIR3DS1 (11738374_at) / RFU C1QL1 (11718748_at) / Fold change /veh C1QL1 (11718748_at) / RFU TMPRSS4 (11747572_a_at) / Fold change /veh TMPRSS4 (11747572_a_at) / RFU HAMP (11756126_x_at) / Fold change /veh HAMP (11756126_x_at) / RFU RNFT2 (11725882_a_at) / Fold change /veh RNFT2 (11725882_a_at) / RFU NR4A2 (11747474_a_at) / Fold change /veh NR4A2 (11747474_a_at) / RFU ABCC12 (11746883_a_at) / Fold change /veh ABCC12 (11746883_a_at) / RFU TMEM136 (11760407_x_at) / Fold change /veh TMEM136 (11760407_x_at) / RFU CLDN22 /// WWC2 (11732394_at) / Fold change /veh CLDN22 /// WWC2 (11732394_at) / RFU HLA-DPB1 (11760878_x_at) / Fold change /veh HLA-DPB1 (11760878_x_at) / RFU SPINT1 (11716480_a_at) / Fold change /veh SPINT1 (11716480_a_at) / RFU GAP43 (11754022_s_at) / Fold change /veh GAP43 (11754022_s_at) / RFU A4GNT (11735810_at) / Fold change /veh A4GNT (11735810_at) / RFU PRB3 (11715151_x_at) / Fold change /veh PRB3 (11715151_x_at) / RFU TUBB4B (11761932_at) / Fold change /veh TUBB4B (11761932_at) / RFU CAPN14 (11732068_a_at) / Fold change /veh CAPN14 (11732068_a_at) / RFU TMCC2 (11721928_a_at) / Fold change /veh TMCC2 (11721928_a_at) / RFU IRGQ (11745062_a_at) / Fold change /veh IRGQ (11745062_a_at) / RFU FAM174B (11720279_a_at) / Fold change /veh FAM174B (11720279_a_at) / RFU TMPRSS4 (11748680_a_at) / Fold change /veh TMPRSS4 (11748680_a_at) / RFU FAM212B (11763350_a_at) / Fold change /veh FAM212B (11763350_a_at) / RFU PLEKHG5 (11743358_a_at) / Fold change /veh PLEKHG5 (11743358_a_at) / RFU ZSCAN30 (11745921_a_at) / Fold change /veh ZSCAN30 (11745921_a_at) / RFU CMKLR1 (11741424_a_at) / Fold change /veh CMKLR1 (11741424_a_at) / RFU LOC101060620 /// MAPK8IP1 (11723275_at) / Fold change /veh LOC101060620 /// MAPK8IP1 (11723275_at) / RFU SPTSSB (11747773_x_at) / Fold change /veh SPTSSB (11747773_x_at) / RFU PRSS12 (11739890_at) / Fold change /veh PRSS12 (11739890_at) / RFU BIN1 (11741810_x_at) / Fold change /veh BIN1 (11741810_x_at) / RFU WNT11 (11732464_a_at) / Fold change /veh WNT11 (11732464_a_at) / RFU C10orf10 (11716521_a_at) / Fold change /veh C10orf10 (11716521_a_at) / RFU C5orf56 (11738089_at) / Fold change /veh C5orf56 (11738089_at) / RFU CYB561 (11721691_x_at) / Fold change /veh CYB561 (11721691_x_at) / RFU ANKRD19P (11752326_a_at) / Fold change /veh ANKRD19P (11752326_a_at) / RFU OR2T12 /// OR2T33 /// OR2T8 (11738714_s_at) / Fold change /veh OR2T12 /// OR2T33 /// OR2T8 (11738714_s_at) / RFU VCAN (11748164_a_at) / Fold change /veh VCAN (11748164_a_at) / RFU JSRP1 (11732532_at) / Fold change /veh JSRP1 (11732532_at) / RFU KRTAP10-11 (11738290_x_at) / Fold change /veh KRTAP10-11 (11738290_x_at) / RFU MYO3A (11730013_a_at) / Fold change /veh MYO3A (11730013_a_at) / RFU EBF3 (11725865_a_at) / Fold change /veh EBF3 (11725865_a_at) / RFU CAMK2N1 (11719241_x_at) / Fold change /veh CAMK2N1 (11719241_x_at) / RFU C5orf56 (11738088_a_at) / Fold change /veh C5orf56 (11738088_a_at) / RFU OLFML3 (11715873_a_at) / Fold change /veh OLFML3 (11715873_a_at) / RFU LOC100653217 /// NTM (11731650_a_at) / Fold change /veh LOC100653217 /// NTM (11731650_a_at) / RFU MAPK11 (11762145_a_at) / Fold change /veh MAPK11 (11762145_a_at) / RFU FIZ1 (11724087_x_at) / Fold change /veh FIZ1 (11724087_x_at) / RFU OASL (11726364_x_at) / Fold change /veh OASL (11726364_x_at) / RFU SOX15 (11748057_x_at) / Fold change /veh SOX15 (11748057_x_at) / RFU CD79A (11719716_a_at) / Fold change /veh CD79A (11719716_a_at) / RFU HIST1H1D (11736915_at) / Fold change /veh HIST1H1D (11736915_at) / RFU CASKIN2 (11723855_a_at) / Fold change /veh CASKIN2 (11723855_a_at) / RFU LOC730098 (11760151_x_at) / Fold change /veh LOC730098 (11760151_x_at) / RFU OR4N2 (11742367_at) / Fold change /veh OR4N2 (11742367_at) / RFU PRRT2 (11749266_a_at) / Fold change /veh PRRT2 (11749266_a_at) / RFU SNX32 (11753110_a_at) / Fold change /veh SNX32 (11753110_a_at) / RFU CDHR5 (11726645_a_at) / Fold change /veh CDHR5 (11726645_a_at) / RFU RCAN1 (11760418_a_at) / Fold change /veh RCAN1 (11760418_a_at) / RFU FAM167A (11723789_a_at) / Fold change /veh FAM167A (11723789_a_at) / RFU FAM26E (11764081_at) / Fold change /veh FAM26E (11764081_at) / RFU ISYNA1 (11749810_s_at) / Fold change /veh ISYNA1 (11749810_s_at) / RFU ACY1 (11761880_at) / Fold change /veh ACY1 (11761880_at) / RFU 11764098_at / Fold change /veh 11764098_at / RFU SAMD14 (11745864_x_at) / Fold change /veh SAMD14 (11745864_x_at) / RFU NPB (11741838_a_at) / Fold change /veh NPB (11741838_a_at) / RFU TMPRSS6 (11731388_a_at) / Fold change /veh TMPRSS6 (11731388_a_at) / RFU KRTAP10-2 (11738614_at) / Fold change /veh KRTAP10-2 (11738614_at) / RFU ARHGAP8 /// PRR5-ARHGAP8 (11727945_x_at) / Fold change /veh ARHGAP8 /// PRR5-ARHGAP8 (11727945_x_at) / RFU KRTAP5-7 /// NADSYN1 (11734609_at) / Fold change /veh KRTAP5-7 /// NADSYN1 (11734609_at) / RFU RASL12 (11751679_a_at) / Fold change /veh RASL12 (11751679_a_at) / RFU CDKN2B (11736163_a_at) / Fold change /veh CDKN2B (11736163_a_at) / RFU PRF1 (11729649_at) / Fold change /veh PRF1 (11729649_at) / RFU, ZNF638 /// ZNF638-IT1 / Fold change vs veh, ZNF638 /// ZNF638-IT1 / RFU, PANK3 / Fold change vs veh, PANK3 / RFU, SH3YL1 / Fold change vs veh, SH3YL1 / RFU, ZEB2 / Fold change vs veh, ZEB2 / RFU, NRIP1 / Fold change vs veh, NRIP1 / RFU, PTTG1IP / Fold change vs veh, PTTG1IP / RFU, CAPN2 / Fold change vs veh, CAPN2 / RFU, MED14 / Fold change vs veh, MED14 / RFU, SNORA58 / Fold change vs veh, SNORA58 / RFU, C1orf63 / Fold change vs veh, C1orf63 / RFU, LRRFIP1 / Fold change vs veh, LRRFIP1 / RFU, NDUFAF7 / Fold change vs veh, NDUFAF7 / RFU, SLC12A2 / Fold change vs veh, SLC12A2 / RFU, IBTK / Fold change vs veh, IBTK / RFU, ESF1 / Fold change vs veh, ESF1 / Fold change vs veh, TMEM50B / RFU, TAOK1 / Fold change vs veh, TAOK1 / RFU, ACBD3 / Fold change vs veh, ACBD3 / RFU, TMA16 / Fold change vs veh, TMA16 / RFU, RWDD3 / Fold change vs veh, RWDD3 / RFU, BCAT1 / Fold change vs veh, BCAT1 / RFU, EDEM3 / Fold change vs veh, EDEM3 / RFU, TMEM33 / Fold change vs veh, TMEM33 / RFU, WDR75 / Fold change vs veh, WDR75 / RFU, AHCTF1 / Fold change vs veh, AHCTF1 / RFU, TFRC / Fold change vs veh, TFRC / RFU, ZDHHC17 / Fold change vs veh, ZDHHC17 / RFU, NOM1 / Fold change vs veh, NOM1 / RFU, ARL8B / Fold change vs veh, ARL8B / RFU, ZBTB11 / Fold change vs veh, ZBTB11 / RFU, TAMM41 / Fold change vs veh, TAMM41 / RFU, KIAA1704 /// LOC100996395 / Fold change vs veh, KIAA1704 /// LOC100996395 / RFU, ING1 / Fold change vs veh, ING1 / RFU, TRMT61B / Fold change vs veh, TRMT61B / RFU, FUBP3 / Fold change vs veh, FUBP3 / RFU, TP53 / Fold change vs veh, TP53 / RFU, TNKS2 / Fold change vs veh, TNKS2 / RFU, ZFP14 / Fold change vs veh, ZFP14 / RFU, ACTR2 / Fold change vs veh, ACTR2 / RFU, PPP3R1 / Fold change vs veh, PPP3R1 / RFU, PIK3R1 / Fold change vs veh, PIK3R1 / RFU, HNRNPA1 / Fold change vs veh, HNRNPA1 / RFU, RNF170 / Fold change vs veh, RNF170 / RFU, ZNF28 / Fold change vs veh, ZNF28 / RFU, RNGTT / Fold change vs veh, RNGTT / RFU, OGT / Fold change vs veh, OGT / RFU, BRD1 / Fold change vs veh, BRD1 / RFU, MARS / Fold change vs veh, MARS / RFU, ZNF655 / Fold change vs veh, ZNF655 / RFU, FAHD1 / Fold change vs veh, FAHD1 / RFU, BDP1 / Fold change vs veh, BDP1 / RFU, LRRCC1 / Fold change vs veh, LRRCC1 / RFU, ARID1A / Fold change vs veh, ARID1A / RFU, ZNF146 / Fold change vs veh, ZNF146 / RFU, ZNF330 / Fold change vs veh, ZNF330 / RFU, GPN3 / Fold change vs veh, GPN3 / RFU, C9orf123 / Fold change vs veh, C9orf123 / RFU, N4BP2L2 / Fold change vs veh, N4BP2L2 / RFU, ARFIP1 / Fold change vs veh, ARFIP1 / RFU, FAM179B / Fold change vs veh, FAM179B / RFU, BCL10 / Fold change vs veh, BCL10 / RFU, UHRF1BP1L / Fold change vs veh, UHRF1BP1L / RFU, BET1 / Fold change vs veh, BET1 / RFU, CNOT2 / Fold change vs veh, CNOT2 / RFU, ZNF268 / Fold change vs veh, ZNF268 / Fold change vs veh, ZNF507 / RFU, DGCR2 / Fold change vs veh, DGCR2 / RFU, WDSUB1 / Fold change vs veh, WDSUB1 / Fold change vs veh, HSP90B1 /// MIR3652 / RFU, ADSS / Fold change vs veh, ADSS / RFU, GK / Fold change vs veh, GK / RFU, ZNF148 / Fold change vs veh, ZNF148 / RFU, TAF9 / Fold change vs veh, TAF9 / RFU, SLC1A5 / Fold change vs veh, SLC1A5 / RFU, SLMO2 / Fold change vs veh, SLMO2 / RFU, ABCC4 / Fold change vs veh, ABCC4 / RFU, LOC101060439 /// RAP1B / Fold change vs veh, LOC101060439 /// RAP1B / RFU, RFX7 / Fold change vs veh, RFX7 / RFU, GTPBP10 / Fold change vs veh, GTPBP10 / RFU, CNEP1R1 / Fold change vs veh, CNEP1R1 / RFU, BIVM-ERCC5 /// ERCC5 / Fold change vs veh, BIVM-ERCC5 /// ERCC5 / RFU, ILF3 / Fold change vs veh, ILF3 / RFU 11762660_at / Fold change /veh 11762660_at / RFU VCAN (11757783_s_at) / Fold change /veh VCAN (11757783_s_at) / RFU DDX43 (11728927_at) / Fold change /veh DDX43 (11728927_at) / RFU KRT8 (11758188_x_at) / Fold change /veh KRT8 (11758188_x_at) / RFU NKD1 (11759106_at) / Fold change /veh NKD1 (11759106_at) / RFU SRD5A1 (11742802_a_at) / Fold change /veh SRD5A1 (11742802_a_at) / RFU TPSAB1 /// TPSB2 (11721975_s_at) / Fold change /veh TPSAB1 /// TPSB2 (11721975_s_at) / RFU GSTM3 (11746129_a_at) / Fold change /veh GSTM3 (11746129_a_at) / RFU IL23R (11737362_x_at) / Fold change /veh IL23R (11737362_x_at) / RFU TMEM51 (11727254_a_at) / Fold change /veh TMEM51 (11727254_a_at) / RFU PIWIL2 (11732686_x_at) / Fold change /veh PIWIL2 (11732686_x_at) / RFU ORM1 (11744905_x_at) / Fold change /veh ORM1 (11744905_x_at) / RFU CCDC152 (11743942_at) / Fold change /veh CCDC152 (11743942_at) / RFU ECM1 (11717891_a_at) / Fold change /veh ECM1 (11717891_a_at) / RFU IL23R (11748794_a_at) / Fold change /veh IL23R (11748794_a_at) / RFU TNFAIP8L3 (11732012_x_at) / Fold change /veh TNFAIP8L3 (11732012_x_at) / RFU MBOAT4 (11741988_at) / Fold change /veh MBOAT4 (11741988_at) / RFU 11764193_at / Fold change /veh 11764193_at / RFU TMEM53 (11763286_at) / Fold change /veh TMEM53 (11763286_at) / RFU MAGEB2 (11727129_at) / Fold change /veh MAGEB2 (11727129_at) / RFU TMEM200A (11744735_a_at) / Fold change /veh TMEM200A (11744735_a_at) / RFU CCDC152 (11751479_a_at) / Fold change /veh CCDC152 (11751479_a_at) / RFU FAM211A (11726209_a_at) / Fold change /veh FAM211A (11726209_a_at) / RFU RGS16 (11746705_a_at) / Fold change /veh RGS16 (11746705_a_at) / RFU VCAN (11755009_s_at) / Fold change /veh VCAN (11755009_s_at) / RFU RHOB (11743442_s_at) / Fold change /veh RHOB (11743442_s_at) / RFU RGS16 (11720943_a_at) / Fold change /veh RGS16 (11720943_a_at) / RFU RGS16 (11720944_at) / Fold change /veh RGS16 (11720944_at) / RFU, VPS4B / Fold change vs veh, VPS4B / RFU, CREB1 / Fold change vs veh, CREB1 / RFU, DNAJC13 / Fold change vs veh, DNAJC13 / RFU, GNAQ / Fold change vs veh, GNAQ / RFU, CDK5R1 / Fold change vs veh, CDK5R1 / RFU, ZRANB3 / Fold change vs veh, ZRANB3 / RFU, CUL4A / Fold change vs veh, CUL4A / RFU, CCNY / Fold change vs veh, CCNY / RFU, UFL1 / Fold change vs veh, UFL1 / RFU, COG3 / Fold change vs veh, COG3 / RFU, DIAPH2 / Fold change vs veh, DIAPH2 / RFU, SKA2 / Fold change vs veh, SKA2 / RFU, AFF3 / Fold change vs veh, AFF3 / RFU, LMF1 / Fold change vs veh, LMF1 / RFU, IPO11 / Fold change vs veh, IPO11 / RFU, DFFB / Fold change vs veh, DFFB / RFU, FOXP1 / Fold change vs veh, FOXP1 / RFU, CARD8 / Fold change vs veh, CARD8 / RFU, STRN3 / Fold change vs veh, STRN3 / RFU, ADK / Fold change vs veh, ADK / RFU, RASSF2 / Fold change vs veh, RASSF2 / RFU, WIPF1 / Fold change vs veh, WIPF1 / RFU, LARP1B / Fold change vs veh, LARP1B / RFU, RASA1 / Fold change vs veh, RASA1 / RFU, RB1 / Fold change vs veh, RB1 / RFU, PPFIA1 / Fold change vs veh, PPFIA1 / RFU, MAT2A / Fold change vs veh, MAT2A / RFU, CCT5 / Fold change vs veh, CCT5 / RFU, WDR92 / Fold change vs veh, WDR92 / RFU, CUX1 / Fold change vs veh, CUX1 / RFU, TTC7A / Fold change vs veh, TTC7A / RFU, TMEM135 / Fold change vs veh, TMEM135 / RFU, DEPTOR / Fold change vs veh, DEPTOR / RFU, CPM / Fold change vs veh, CPM / RFU, DNAJB6 / Fold change vs veh, DNAJB6 / RFU, CACNA2D3 / Fold change vs veh, CACNA2D3 / RFU, DTX4 / Fold change vs veh, DTX4 / RFU, TFCP2 / Fold change vs veh, TFCP2 / RFU, GMCL1 /// GMCL1P1 / Fold change vs veh, GMCL1 /// GMCL1P1 / RFU, AEBP2 / Fold change vs veh, AEBP2 / RFU, SNHG1 /// SNORD22 /// SNORD25 /// SNORD26 /// SNORD27 /// SNORD28 /// SNORD29 /// SNORD31 / Fold change vs veh, SNHG1 /// SNORD22 /// SNORD25 /// SNORD26 /// SNORD27 /// SNORD28 /// SNORD29 /// SNORD31 / Fold change (Aza/veh), C12orf56 (ProbeSet 11735607_a_at) / Fold change (ACY-1035/veh), C12orf56 (ProbeSet 11735607_a_at) / Fold change (Aza/veh), FGFR1OP (ProbeSet 11751329_s_at) / Fold change (ACY-1035/veh), FGFR1OP (ProbeSet 11751329_s_at) / Fold change (Aza/veh), VPS36 (ProbeSet 11739960_a_at) / Fold change (ACY-1035/veh), VPS36 (ProbeSet 11739960_a_at) / RFU SYPL1 (11715823_x_at) / Fold change /veh SYPL1 (11715823_x_at) / RFU IGFBP7 (11715501_s_at) / Fold change /veh IGFBP7 (11715501_s_at) / RFU REEP3 (11722064_at) / Fold change /veh REEP3 (11722064_at) / RFU IGLL1 (11728026_x_at) / Fold change /veh IGLL1 (11728026_x_at): dose or concentration left out as unconfirmed
# Conditions: MV-4-11 cells, 48 hours
smiles,measurement,value
Nc1ncn([C@@H]2O[C@H](CO)[C@@H](O)[C@H]2O)c(=O)n1 [azacitidine],Fold change /veh NPB (11741838_a_at),0.96

# Reference: article PMC5218480 (PLoS ONE, 2017)
